# Data taken from PubChem BioAssay AID1963438 (Molecular Pharmacology Branch, DTP, NCI, 2024).
# Values joined by “and” are separate entries in the source; they are usually repeats but may differ in a detail not shown here. Equal entries are not always repeated.
# Tested on: NCI-H510 multicellular tumor spheroid growth, % test/control
# Assay: Anticancer human tumor NCI-H510 cell line growth inhibition [Asc];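 also: spheroids exposed to agents for 7 days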;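 as to viability, T/C: 100% = DMSO vehicle control wells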
# Details: for viability, T/C: stronger effect = lower value
# Procedure, shortened: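 Complex solid-tumor spheroids incorporating human endothelial and mesenchymal stem cells received single agents or combinations over half-log dilution ranges anchored to clinical Cmax.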
# [1] = curve of first compound, second compound 0.03 µM
# [2] = curve of first compound, second compound 0.0949 µM
# [3] = curve of first compound, second compound 0.3 µM
# [4] = curve of first compound, second compound 0.949 µM
# [5] = curve of first compound, second compound 3 µM
# [6] = second compound 0.03 µM, first compound 0.0316 µM
# [7] = second compound 0.03 µM, first compound 0.1 µM
# [8] = second compound 0.03 µM, first compound 0.316 µM
# [9] = second compound 0.03 µM, first compound 1 µM
# [10] = second compound 0.0949 µM, first compound 0.0316 µM
# [11] = second compound 0.0949 µM, first compound 0.1 µM
# [12] = second compound 0.0949 µM, first compound 0.316 µM
# [13] = second compound 0.0949 µM, first compound 1 µM
# [14] = second compound 0.3 µM, first compound 0.0316 µM
# [15] = second compound 0.3 µM, first compound 0.1 µM
# [16] = second compound 0.3 µM, first compound 0.316 µM
# [17] = second compound 0.3 µM, first compound 1 µM
# [18] = second compound 0.949 µM, first compound 0.0316 µM
# [19] = second compound 0.949 µM, first compound 0.1 µM
# [20] = second compound 0.949 µM, first compound 0.316 µM
# [21] = second compound 0.949 µM, first compound 1 µM
# [22] = second compound 3 µM, first compound 0.0316 µM
# [23] = second compound 3 µM, first compound 0.1 µM
# [24] = second compound 3 µM, first compound 0.316 µM
# [25] = second compound 3 µM, first compound 1 µM
compound,measurement,setting,value
CNC(C)C(=O)NC1CN(S(=O)(=O)c2cccc(S(=O)(=O)N3CCC4CCC(C(=O)NC(c5ccccc5)c5ccccc5)N4C(=O)C(NC(=O)C(C)NC)C3)c2)CCC2CCC(C(=O)NC(c3ccccc3)c3ccccc3)N2C1=O (configuration not stated) + CCN1C(C(=O)NC23CCC(C(=O)O)(CC2)CC3)C(c2cccc(Cl)c2F)C2(C(=O)Nc3cc(Cl)ccc32)C12CCCCC2,IC50,[1],> 1 µM
same,IC50,[2],> 1 µM
same,IC50,[3],> 1 µM
same,IC50,[4],> 1 µM
same,IC50,[5],> 1 µM
same,"viability, T/C","second compound 0.03 µM, first compound 0.00316 µM",96.8%
same,"viability, T/C","second compound 0.03 µM, first compound 0.01 µM",81.6%
same,"viability, T/C",[6],96.8%
same,"viability, T/C",[7],101%
same,"viability, T/C",[8],95.6%
same,"viability, T/C",[9],97.8%
same,"viability, T/C","second compound 0.0949 µM, first compound 0.00316 µM",98.5%
same,"viability, T/C","second compound 0.0949 µM, first compound 0.01 µM",104%
same,"viability, T/C",[10],87.8%
same,"viability, T/C",[11],77.2%
same,"viability, T/C",[12],105%
same,"viability, T/C",[13],83.5%
same,"viability, T/C","second compound 0.3 µM, first compound 0.00316 µM",81.6%
same,"viability, T/C","second compound 0.3 µM, first compound 0.01 µM",106%
same,"viability, T/C",[14],106%
same,"viability, T/C",[15],93.4%
same,"viability, T/C",[16],89.8%
same,"viability, T/C",[17],83.7%
same,"viability, T/C","second compound 0.949 µM, first compound 0.00316 µM",110%
same,"viability, T/C","second compound 0.949 µM, first compound 0.01 µM",99.8%
same,"viability, T/C",[18],118%
same,"viability, T/C",[19],96.6%
same,"viability, T/C",[20],102%
same,"viability, T/C",[21],81.7%
same,"viability, T/C","second compound 3 µM, first compound 0.00316 µM",86.5%
same,"viability, T/C","second compound 3 µM, first compound 0.01 µM",92%
same,"viability, T/C",[22],117%
same,"viability, T/C",[23],84.1%
same,"viability, T/C",[24],87.3%
same,"viability, T/C",[25],110%
CCN1C(C(=O)NC23CCC(C(=O)O)(CC2)CC3)C(c2cccc(Cl)c2F)C2(C(=O)Nc3cc(Cl)ccc32)C12CCCCC2 (configuration not stated) + CNC(C)C(=O)NC1CN(S(=O)(=O)c2cccc(S(=O)(=O)N3CCC4CCC(C(=O)NC(c5ccccc5)c5ccccc5)N4C(=O)C(NC(=O)C(C)NC)C3)c2)CCC2CCC(C(=O)NC(c3ccccc3)c3ccccc3)N2C1=O,IC50,"curve of first compound, second compound 0.01 µM",> 3 µM
same,IC50,"curve of first compound, second compound 0.0316 µM",> 3 µM
same,IC50,"curve of first compound, second compound 0.1 µM",> 3 µM
same,IC50,"curve of first compound, second compound 0.316 µM",> 3 µM
same,IC50,"curve of first compound, second compound 1 µM",> 3 µM
same,"viability, T/C","second compound 0.01 µM, first compound 0.00949 µM",130%
same,"viability, T/C","second compound 0.01 µM, first compound 0.03 µM",104%
same,"viability, T/C","second compound 0.01 µM, first compound 0.0949 µM",101%
same,"viability, T/C","second compound 0.01 µM, first compound 0.3 µM",96.7%
same,"viability, T/C","second compound 0.01 µM, first compound 0.949 µM",108%
same,"viability, T/C","second compound 0.01 µM, first compound 3 µM",104%
same,"viability, T/C","second compound 0.0316 µM, first compound 0.00949 µM",108%
same,"viability, T/C","second compound 0.0316 µM, first compound 0.03 µM",98.3%
same,"viability, T/C","second compound 0.0316 µM, first compound 0.0949 µM",97.8%
same,"viability, T/C","second compound 0.0316 µM, first compound 0.3 µM",117%
same,"viability, T/C","second compound 0.0316 µM, first compound 0.949 µM",131%
same,"viability, T/C","second compound 0.0316 µM, first compound 3 µM",90.9%
same,"viability, T/C","second compound 0.1 µM, first compound 0.00949 µM",108%
same,"viability, T/C","second compound 0.1 µM, first compound 0.03 µM",113%
same,"viability, T/C","second compound 0.1 µM, first compound 0.0949 µM",106%
same,"viability, T/C","second compound 0.1 µM, first compound 0.3 µM",101%
same,"viability, T/C","second compound 0.1 µM, first compound 0.949 µM",93.5%
same,"viability, T/C","second compound 0.1 µM, first compound 3 µM",121%
same,"viability, T/C","second compound 0.316 µM, first compound 0.00949 µM",95.3%
same,"viability, T/C","second compound 0.316 µM, first compound 0.03 µM",117%
same,"viability, T/C","second compound 0.316 µM, first compound 0.0949 µM",95.5%
same,"viability, T/C","second compound 0.316 µM, first compound 0.3 µM",109%
same,"viability, T/C","second compound 0.316 µM, first compound 0.949 µM",92.9%
same,"viability, T/C","second compound 0.316 µM, first compound 3 µM",107%
same,"viability, T/C","second compound 1 µM, first compound 0.00949 µM",96.6%
same,"viability, T/C","second compound 1 µM, first compound 0.03 µM",97.1%
same,"viability, T/C","second compound 1 µM, first compound 0.0949 µM",94.8%
same,"viability, T/C","second compound 1 µM, first compound 0.3 µM",99.2%
same,"viability, T/C","second compound 1 µM, first compound 0.949 µM",97.8%
same,"viability, T/C","second compound 1 µM, first compound 3 µM",115%
C#Cc1c(F)ccc2cc(O)cc(-c3ncc4c(N5CC6CCC(C5)N6)nc(OCC56CCCN5CC(F)C6)nc4c3F)c12 (configuration not stated) + CCN1C(C(=O)NC23CCC(C(=O)O)(CC2)CC3)C(c2cccc(Cl)c2F)C2(C(=O)Nc3cc(Cl)ccc32)C12CCCCC2,IC50,[1],> 10 µM
same,IC50,[2],> 10 µM
same,IC50,[3],> 10 µM
same,IC50,[4],> 10 µM
same,IC50,[5],> 10 µM
same,"viability, T/C",[6],118%
same,"viability, T/C",[7],98.2%
same,"viability, T/C",[8],92.6%
same,"viability, T/C",[9],92.1%
same,"viability, T/C","second compound 0.03 µM, first compound 3.16 µM",105%
same,"viability, T/C","second compound 0.03 µM, first compound 10 µM",110%
same,"viability, T/C",[10],93.8%
same,"viability, T/C",[11],100%
same,"viability, T/C",[12],103%
same,"viability, T/C",[13],100%
same,"viability, T/C","second compound 0.0949 µM, first compound 3.16 µM",103%
same,"viability, T/C","second compound 0.0949 µM, first compound 10 µM",95.4%
same,"viability, T/C",[14],109%
same,"viability, T/C",[15],113%
same,"viability, T/C",[16],92.5%
same,"viability, T/C",[17],107%
same,"viability, T/C","second compound 0.3 µM, first compound 3.16 µM",91.4%
same,"viability, T/C","second compound 0.3 µM, first compound 10 µM",87.6%
same,"viability, T/C",[18],93%
same,"viability, T/C",[19],108%
same,"viability, T/C",[20],98%
same,"viability, T/C",[21],109%
same,"viability, T/C","second compound 0.949 µM, first compound 3.16 µM",106%
same,"viability, T/C","second compound 0.949 µM, first compound 10 µM",95.1%
same,"viability, T/C",[22],110%
same,"viability, T/C",[23],107%
same,"viability, T/C",[24],114%
same,"viability, T/C",[25],99.9%
same,"viability, T/C","second compound 3 µM, first compound 3.16 µM",101%
same,"viability, T/C","second compound 3 µM, first compound 10 µM",102%
NC1CCC(NC2CC2c2ccccc2)CC1 (configuration not stated),"viability, T/C",compound 0.000316 µM,67.7% and 77.1% and 95.6%
same,"viability, T/C",compound 0.001 µM,69.7% and 75.9% and 98.6%
same,"viability, T/C",compound 0.00316 µM,79.1% and 83% and 96.4%
same,"viability, T/C",compound 0.01 µM,69.3% and 84.8% and 101%
same,"viability, T/C",compound 0.0316 µM,89.1% and 83.1% and 91.1%
same,"viability, T/C",compound 0.1 µM,65% and 77.7% and 93%
same,IC50,curve of compound,> 0.1 µM
